This passage reports Ki and EC50 results from US8815919B2, “Oxadiazole derivatives” (Merck Serono SA, priority 2009, dated 2014).

The structures appear in SMILES notation. Counter-ions that a name gives are not always drawn. Like-named read-outs stand apart in the source and are kept apart here.

Test [1] addresses T1, S1P1 (Homo sapiens, UniProt P21453). Put plainly: Receptor binding assay, [33P]sphingosine 1-phosphate competition, S1P1 membranes, WGA SPA beads. The protocol:
(§1) Membranes were prepared from CHO cells expressing S1P1 or S1P3 for use in ligand and […] binding studies. Cells were suspended in 50 mM TRIS, pH 7.4, 2 mM EDTA, 250 mM Sucrose (buffer A) and 1× Complete protease inhibitor cocktail (Roche), and disrupted at 4° C. by N2 decompression using a cell disruption bomb (Parr Instrument). Following centrifugation at 1000 RPM for 10 min at 4° C., the supernatant was diluted (2×) in buffer A and centrifuged again at 19000 RPM for 75 min at 4° C. The pellet was then suspended in 10 mM HEPES, pH 7.4, 1 mM EDTA, 250 mM Sucrose (Buffer B), and 1× Complete EDTA-free protease inhibitor cocktail and homogenized using a potter. Membranes were flash frozen in liquid N2 and stored at −80° C.
(§2) Receptor binding assay: [33P]sphingosine 1-phosphate (3000 Ci/mmol; American Radiolabeled Chemicals, Inc.) was added to test compounds in 20% DMSO by competition. Membranes and WGA SPA beads (GE Healthcare) were added to give a final volume of 100 μl in 96-well plates or 50 μl in 384-well plates with assay concentrations of […] [33P]sphingosine 1-phosphate (respectively for S1P1 or S1P3), 50 mM HEPES, pH 7.5, 5 mM MgCl2, 100 mM NaCl, 0.4% fatty acid-free BSA, 1-5 μg/well of proteins in 96-well plates vs 0.6-1 μg/well of proteins in 384-well plates and 100 μg/well of WGA SPA beads in 96-well plates vs 75 μg/well of WGA SPA beads in 384-well plates. Binding was performed for 60 min at RT on a shaker and bound radioactivity was measured on a PerkinElmer 1450 MicroBeta counter. Triplicate samples were averaged and normalized as percentage of inhibition relative to total binding (only DMSO in well) and nonspecific binding (1000-fold excess of unlabeled S1P). Binding data were analyzed using the GraphPad Prism program or Genedata software.
Target sequence in this assay (P21453 whole entry, species assumed): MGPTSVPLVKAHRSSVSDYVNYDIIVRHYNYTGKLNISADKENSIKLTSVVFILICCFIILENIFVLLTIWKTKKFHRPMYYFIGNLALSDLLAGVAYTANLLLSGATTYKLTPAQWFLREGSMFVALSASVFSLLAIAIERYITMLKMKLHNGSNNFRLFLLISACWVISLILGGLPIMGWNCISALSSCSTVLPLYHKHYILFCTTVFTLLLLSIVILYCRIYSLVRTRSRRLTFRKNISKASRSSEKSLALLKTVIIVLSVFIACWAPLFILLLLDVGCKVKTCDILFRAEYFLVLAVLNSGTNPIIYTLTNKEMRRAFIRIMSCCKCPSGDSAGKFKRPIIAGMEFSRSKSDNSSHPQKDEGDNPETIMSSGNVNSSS

The target in test [2] is S1P3 (Homo sapiens, UniProt Q99500). Briefly: Receptor binding assay, [33P]sphingosine 1-phosphate competition, S1P3 membranes, WGA SPA beads. The protocol:
as §1, §2

Test [3] concerns the target T1, S1P1. Put plainly: S1P1 internalization assay in S1P1-U2OS cells (S1P1-EGFP), cell imaging. It counts as cell-based. Details: host or cells: U2OS (human bone osteosarcoma epithelial cells), CMV promoter, geneticin selection. As to conditions: 1 hour incubation. The method, then: Cellular functional assays: Internalization of Sphingosine-1-phosphate receptor 1 (S1P1) in a human Cell line (U2OS) in a 384-well format using a Cell Imaging analysis. • Jo, E.; Sanna, M. G.; Gonzalez-Cabrera, P. J.; Thangada, S.; Tigyi, S.; Osborne, D. A.; Hla, T.; Parrill, A. L.; Rosen, H. Chem. Biol. 2005, 12, 703
The S1P1 internalization assay was performed in 384 well plates (Corning® 384 black with clear bottom 3712) using S1P1-U2OS cells from Biolmage (C039A), a human epithelial cell line (Human Bone Osteosarcoma Epithelial Cells). These cells expressed the human S1P1 Receptor fused to the green fluorescent protein (EGFP). A standard CMV promoter (cytomegalovirus promoter) controls the expression of S1P1-EGFP and continuous expression was maintained by addition of geneticin to the culture medium.
S1P1 Receptor desensitization induced the internalization of the membrane-localized S1P1-EGFP fusion protein to endosomes, which can be monitored by cell imaging analysis. The cells are plated in low serum medium (Dulbecco's Modified Eagle Medium (DMEM) with Glutamax-1 and high glucose, 1% Penicillin/Streptomycin, 1% Fetal Calf Serum (FCS), 0.5 mg/ml Geneticin) overnight.
The next day, S1P1-U2OS cells are incubated in 20 μl serum free medium (DMEM with Glutamax-1 and high glucose, 0.1% of fatty-acid free Bovin Serum Albumin (BSA), 10 mM, N′-2-Hydroxyethylpiperazine-N′-2 ethanesulphonic acid (HEPES) 1M) for 2 hours at 37° C./5% CO2. The cells are then treated with 4 μl compounds/agonists (6×/3% DMSO) for a total volume of 24 μl, and plates are incubated for 1 hour at 37° C./5% CO2.
S1P1-U2OS cells are fixed with 25 μl Paraformaldehyde 8% and stained with Hoechst 33345 dye (1:1000) for 20 minutes.
They were then washed 3 times with Phosphate Buffered Saline (PBS) and plates are sealed. The internalization of the receptor S1P1-EGFP is measured on Cellomics by calculating the “spot count per object” (“object” corresponds to nuclear and “spot” corresponds to S1P1-EGFP receptor). Internalization data were observed thanks to vHCS View and analyzed using Genedata® software.
Target sequence in this assay (P21453 whole entry): as the sequence (P21453 whole entry, species assumed) above

Setting [4] is: 96 well-plate, read-out: S1P1 binding Ki (M) (96 well-plate).
[5] abbreviates: 96 well-plate, read-out: S1P3 binding Ki (M) (96 well-plate).
Setting [6] is: 384 well-plate, read-out: S1P3 binding Ki (M) (384 well-plate).
The mark [7] stands for this setting: 384 well-plate, read-out: S1P1 binding Ki (M) (384 well-plate).

Sequence of S1P3 (Q99500 whole entry, species assumed): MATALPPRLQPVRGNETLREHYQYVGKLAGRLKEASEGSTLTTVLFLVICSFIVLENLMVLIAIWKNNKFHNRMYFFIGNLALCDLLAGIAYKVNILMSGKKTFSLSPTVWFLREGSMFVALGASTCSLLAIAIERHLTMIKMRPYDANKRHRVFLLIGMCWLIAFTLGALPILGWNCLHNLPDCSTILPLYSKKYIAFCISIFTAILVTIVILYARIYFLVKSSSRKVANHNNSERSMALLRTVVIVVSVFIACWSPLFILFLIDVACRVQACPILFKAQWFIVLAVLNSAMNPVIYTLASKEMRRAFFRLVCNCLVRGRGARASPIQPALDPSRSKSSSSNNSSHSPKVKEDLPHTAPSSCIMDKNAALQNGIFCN

For orientation: Ki means a measure of affinity in units of concentration, obtained from inhibition or displacement. As a reminder, the EC50 is the concentration giving half of the maximal effect. Turning to `COCc1cc(-c2nc(-c3cccc(CN(C)CC(=O)O)c3)no2)ccc1-c1cc(F)ccc1Cl` [Example 65, N-(3-{5-[2′-chloro-5′-fluoro-2-(methoxymethyl)biphenyl-4-yl]-1,2,4-oxadiazol-3-yl}benzyl)-N-methylglycine, hydrochloride salt], the Ki in test [1] (setting [4]) turned out to be 5.31e-10 M; in test [2] (setting [5]) it was 2.31e-07 M; in test [2] (setting [6]), 3.68e-07 M. The EC50 in test [3] came to 21.8 nM.
Turning to `COCc1cc(-c2nc(-c3cccc(CN(CCO)CCC(=O)O)c3)no2)ccc1-c1ccccc1C` [Example 66, N-(2-hydroxyethyl)-N-(3-{5-[2-(methoxymethyl)-2′-methylbiphenyl-4-yl]-1,2,4-oxadiazol-3-yl}benzyl)-beta-alanine, hydrochloride salt], the Ki was 5.36e-10 M in test [1] (setting [4]), 2.42e-09 M in test [1] (setting [7]) and 1.4e-06 M in test [2] (setting [6]). A half-maximal response in test [3] (EC50) required 44.9 nM.
On to `COCc1cc(-c2nc(-c3ccc(CN(C)CCC(=O)O)c(F)c3)no2)ccc1-c1ccccc1C` [Example 73, N-(2-fluoro-4-{5-[2-(methoxymethyl)-2′-methylbiphenyl-4-yl]-1,2,4-oxadiazol-3-yl}benzyl)-N-methyl-beta-alanine, hydrochloride salt], for which the values for the Ki in test [1] (setting [4]) and in test [2] (setting [5]) were 1.07e-10 M and 4.95e-08 M, respectively. Moreover, a half-maximal response in test [3] (EC50) required 1.27 nM.
As to `COCc1cc(-c2nc(-c3ccc(CN(C)CCC(=O)O)cc3)no2)ccc1-c1ccccc1C` [Example 74, N-(4-{5-[2-(methoxymethyl)-2′-methylbiphenyl-4-yl]-1,2,4-oxadiazol-3-yl}benzyl)-N-methyl-beta-alanine, hydrochloride salt], the Ki in test [1] (setting [4]) amounted to 2.01e-10 M; in test [2] (setting [5]), 1.08e-07 M. This molecule also came in with an EC50 in test [3] of 1.46 nM.
`COCc1cc(-c2nc(-c3cc(F)cc(CN(C)CC(=O)O)c3)no2)ccc1-c1ccccc1` [Example 76]: the values for the inhibitory constant (Ki) in test [1] (setting [4]) and in test [2] (setting [5]) were 1.81e-10 M and 1.09e-08 M, respectively. This molecule yielded an EC50 in test [3] of 5.36 nM.
With `CCCN(CC(=O)O)Cc1cccc(-c2noc(-c3ccc(-c4ccccc4C)c(COC)c3)n2)c1` [Example 77, N-(3-{5-[2-(methoxymethyl)-2′-methylbiphenyl-4-yl]-1,2,4-oxadiazol-3-yl}benzyl)-N-propylglycine, hydrochloride salt], the Ki stood at 1.58e-09 M in test [1] (setting [4]), 9.83e-10 M in test [1] (setting [7]) and 6.05e-07 M in test [2] (setting [5]). The molecule further gave an EC50 in test [3] of 52.6 nM.
With `CCN(CC(=O)O)Cc1cccc(-c2noc(-c3ccc(-c4ccccc4C)c(COC)c3)n2)c1` [Example 78, N-ethyl-N-(3-{5-[2-(methoxymethyl)-2′-methylbiphenyl-4-yl]-1,2,4-oxadiazol-3-yl}benzyl)glycine, hydrochloride salt], the Ki turned out to be 4.41e-10 M in test [1] (setting [4]), 2.47e-09 M in test [1] (setting [7]), 1.5e-07 M in test [2] (setting [5]) and 3.54e-07 M in test [2] (setting [6]). The EC50 in test [3] is 34.3 nM.
As to `COCc1cc(-c2nc(-c3ccc(CN(C)CC(=O)O)c(OC)c3)no2)ccc1-c1ccccc1C` [Example 79, 2-((2-methoxy-4-(5-(2-(methoxymethyl)-2′-methylbiphenyl-4-yl)-1,2,4-oxadiazol-3-yl)benzyl)(methyl)amino)acetic acid, hydrochloride salt], the Ki came to 2.69e-09 M in test [1] (setting [4]), 5.33e-09 M in test [1] (setting [7]) and 4.84e-06 M in test [2] (setting [5]). Besides, a half-maximal response in test [3] (EC50) required 47.7 nM.
For `COc1cc(-c2noc(-c3ccc(N4CCCCC4C)c(C(F)(F)F)c3)n2)ccc1CN(C)CC(=O)O` (stereo not shown) [Example 80, 2-((2-methoxy-4-(5-(4-(2-methylpiperidin-1-yl)-3-(trifluoromethyl)phenyl)-1,2,4-oxadiazol-3-yl)benzyl)(methyl)amino)acetic acid, hydrochloride salt], in that order: 1.6e-09 M, 3.12e-09 M, 2.79e-06 M and 47 nM.
Consider `COCc1cc(-c2nc(-c3ccc(CNCC(=O)O)c(F)c3)no2)ccc1-c1ccccc1F` [Example 82, N-(2-fluoro-4-{5-[2′-fluoro-2-(methoxymethyl)biphenyl-4-yl]-1,2,4-oxadiazol-3-yl}benzyl)glycine, hydrochloride salt], for which the Ki in test [1] (setting [4]) is 5.42e-11 M; in test [1] (setting [7]) it was 3.74e-10 M; in test [2] (setting [5]) it was 4.66e-08 M; in test [2] (setting [6]), 5.24e-08 M. This molecule also displayed an EC50 in test [3] of 1.73 nM.
For `COCc1cc(-c2nc(-c3ccc(CNCC(=O)O)c(F)c3)no2)ccc1-c1ccccc1C` [Example 83, N-(2-fluoro-4-{5-[2-(methoxymethyl)-2′-methylbiphenyl-4-yl]-1,2,4-oxadiazol-3-yl}benzyl)glycine, hydrochloride salt] the same measures were 7.39e-11 M, 1.8e-10 M, 1.01e-07 M, 2.75e-07 M and 1.2 nM.
In the case of `Cc1ccccc1-c1ccc(-c2nc(-c3ccc(CNCCC(=O)O)cc3)no2)cc1C(F)(F)F` [Example 84], the Ki in test [1] (setting [4]) turned out to be 1.43e-10 M; in test [1] (setting [7]), 3.77e-10 M; in test [2] (setting [5]) it was 1.56e-07 M; in test [2] (setting [6]), 1.73e-07 M. It took 1.55 nM to reach a half-maximal effect in test [3] (EC50).
With `CC1CCCCN1c1ccc(-c2nc(-c3ccc(CN(C)CC(=O)O)c(F)c3)no2)cc1C(F)(F)F` (stereo not shown) [Example 85, N-(2-fluoro-4-{5-[4-(2-methylpiperidin-1-yl)-3-(trifluoromethyl)phenyl]-1,2,4-oxadiazol-3-yl}benzyl)-N-methylglycine, dihydrochloride salt], the Ki was found to be 3.16e-10 M in test [1] (setting [4]), 9.74e-10 M in test [1] (setting [7]) and 1.77e-07 M in test [2] (setting [5]). In test [3], this molecule came in with an EC50 of 13.6 nM.
For `COCc1cc(-c2nc(-c3cccc(CCN(C)CC(=O)O)c3)no2)ccc1-c1ccccc1C` [Example 86, [(2-{3-[5-(2-Methoxymethyl-2′-methyl-biphenyl-4-yl)-[1,2,4]oxadiazol-3-yl]-phenyl}-ethyl)-methyl-amino]-acetic acid] the same measures were 1.46e-10 M, 4.97e-10 M, 3.18e-08 M and 4.98 nM.
For `COCc1cc(-c2nc(-c3ccc(CCN(C)CC(=O)O)cc3)no2)ccc1-c1ccccc1C` [Example 87, [(2-{4-[5-(2-Methoxymethyl-2′-methyl-biphenyl-4-yl)-[1,2,4]oxadiazol-3-yl]-phenyl}-ethyl)-methyl-amino]-acetic acid], the Ki in test [1] (setting [4]) is 4.23e-10 M; in test [1] (setting [7]), 9.45e-10 M; in test [2] (setting [5]) it was 4.2e-07 M; in test [2] (setting [6]) it was 3.85e-07 M. This molecule had an EC50 in test [3] of 13.6 nM.
For `COCc1cc(-c2nc(-c3ccc(CN(C)CC(=O)O)cc3)no2)ccc1-c1cccc(F)c1C` [Example 90, N-(4-{5-[3′-fluoro-2-(methoxymethyl)-2′-methylbiphenyl-4-yl]-1,2,4-oxadiazol-3-yl}benzyl)-N-methylglycine, hydrochloride salt], the Ki was found to be 2.78e-10 M in test [1] (setting [4]), 8.65e-10 M in test [1] (setting [7]), 5.45e-07 M in test [2] (setting [5]) and 8.49e-07 M in test [2] (setting [6]). In test [3], the EC50 turned out to be 4.46 nM.
